IC50 data for two compounds are collected here from patent US20210078972A1, “QUINOLINE OR QUINAZOLINE COMPOUND AND APPLICATION THEREOF” (HAIHE BIOPHARMA CO., LTD., priority 2018, published 2021).

In assay [1] the target is T1, AXL kinase domain recombinant protein (Homo sapiens, UniProt P30530).
T1 construct: the AXL kinase domain recombinant protein (eurofins, 14-512); purchased eurofins 14-512
T1 sequence (P30530 536-807 limits assumed): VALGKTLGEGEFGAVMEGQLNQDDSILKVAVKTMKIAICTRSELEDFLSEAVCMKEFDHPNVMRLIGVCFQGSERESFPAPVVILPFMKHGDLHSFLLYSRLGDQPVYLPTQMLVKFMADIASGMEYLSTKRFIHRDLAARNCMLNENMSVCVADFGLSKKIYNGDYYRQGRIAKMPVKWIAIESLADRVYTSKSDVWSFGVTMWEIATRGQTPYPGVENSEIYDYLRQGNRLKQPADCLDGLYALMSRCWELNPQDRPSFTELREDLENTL
Put plainly: AXL kinase inhibition, ELISA. The settings on record: ATP 5 μM. In kind it is biochemical. As for the experimental part:
Detection of the activity of kinase: Enzyme-linked immunosorbent assay (ELISA) technology was used to detect the inhibitory activities of the compounds against the kinase. […] After the liquid in the well was discarded, the plate was washed three times with T-PBS (PBS containing 0.1% Tween-20), 200 μL T-PBS per well, 5 minutes for each time. The enzyme label plate was dried in an oven at 37° C. for 1-2 hours. To each well was added 50 μL of ATP solution diluted with reaction buffer (50 mM HEPES, pH 7.4, 50 mM MgCl2, 0.5 mM MnCl2, 0.2 mM Na3VO4, 1 mM DTT) with a final concentration of 5 μM. […] Two wells with no enzyme for control are required for each experiment. The plate was incubated on a shaker (100 rpm) at 37° C. and reacted for 1 hour. The plate was washed three times with T-PBS. 100 μ/well of primary antibody PY99 dilution was added and the plate was reacted in a shaker at 37° C. for 0.5 hour. The plate was washed three times with T-PBS. 100 μ/well of secondary antibody horseradish peroxidase-labeled goat anti-mouse IgG dilution was added and the plate was reacted in a shaker at 37° C. for 0.5 hour. The plate was washed three times with T-PBS. 2 mg/ml of OPD color solution was added with 100 μ/well (diluted with 0.1 M citric acid-sodium citrate buffer (pH=5.4) containing 0.03% H2O2), and the plate was reacted at 25° C. in the dark for 1-10 minutes. (Ultrasound is required for the dissolution of OPD, and the color solution needs to be prepared for immediate use). 50 μ/well of 2 M H2SO4 was added to stop the reaction, and the wavelength-adjustable enzyme-labeling instrument SPECTRA MAX 190 was used to read the data at a wavelength of 490 nm.
The inhibition rate of the sample was obtained by the following formula: […]
(§1) The IC50 values were obtained by regression with the four-parameter method using the software attached to the enzyme-labeling instrument.
For orientation: ELISA stands for enzyme-linked immunosorbent assay.

For another assay, the system named is MV4-11 cells. The experiment in a line: MV4-11 cell proliferation, CCK-8. In kind it is cell-based. Conditions: Homo sapiens, 72 h, read-out: IC50 of inhibition of proliferation of MV4-11 cells. The method, then: The inhibitory effects of the compounds on the proliferation of MV4-11 cells were detected by a CCK-8 cell counting kit (Dojindo). The specific steps are as follows: MV4-11 cells in the logarithmic phase were seeded into a 96-well culture plate at a suitable density for 90 μL per well. After overnight cultivation, the compounds at different concentrations were added to act for 72 hr, and a solvent control group was set (negative control). After 72 h of the compounds acting on the cells, the effects of the compounds on cell proliferation were detected using the CCK-8 cell counting kit (Dojindo). 10 μL of CCK-8 reagent was added to each well and the plate was placed in an incubator at 37° C. for 2-4 hours. After that, a full-wavelength microplate enzyme-labeling instrument SpectraMax 190 was used to read with a measurement wavelength of 450 nm.
The inhibition rate (%) of the compound on tumor cell growth was calculated by the following formula:
Inhibition rate (%)=(OD control well−OD administration well)/OD control well×100%
as §1

The structures appear in SMILES notation. Some results are limits rather than exact numbers.

Regarding `CCc1ccc2c(c1)c(=O)c(C(=O)Nc1ccc(Oc3ncnc4cc(OCCCN5CCOCC5)c(OC)cc34)c(F)c1)c(C)n2C` [GDL5000123, 6-ethyl-N-(3-fluoro-4-((6-methoxy-7-(3-morpholinopropoxy)quinazolin-4-yl)oxy)phenyl)-1,2-dime thyl-4-oxo-1,4-dihydroquinoline-3-carboxamide, reference compound], the IC50 in assay [1] worked out at 1.2 nM.
`COc1cc2c(Oc3ccc(NC(=O)c4c(C)n(C)c5ccc(OC(F)(F)F)cc5c4=O)cc3F)ncnc2cc1OCCCN1CCOCC1` [TL-134, N-(3-fluoro-4-((6-methoxy-7-(3-morpholinopropoxy)quinazolin-4-yl)oxy)phenyl)-1,2-dim ethyl-4-oxo-6-(trifluoromethoxy)-1,4-dihydroquinoline-3-carboxamide]: the IC50 in the assay on MV4-11 cells is less than 0.4 nM; in assay [1] it was 1.1 nM.
